Source: patent publication US8461362B2, “Protein phosphatase 2A-activating agents” (The Ohio State University Research Foundation, priority 2009, dated 2013)
Residues, ends and D or L forms follow the SMILES beside them. *: point of attachment. Cbz = O=C(OCc1ccccc1)*

What was measured:
[1] = system: Sp1; assay: Sp1 protein expression, stability and ubiquitination in LNCaP cells; assay type: cell-based; conditions: proteasome inhibition, LNCaP cells treated with TS-1
Procedure: (§1) Cells cultured in T25 flasks were collected by scraping, and cell pellets were washed once with PBS. Cells were lysed in a lysis buffer consisting of 1% SDS, 10 mM EDTA and 50 mM Tris-HCl, pH 8.1, in the presence of a commercial protease inhibitor cocktail from Aldrich-Sigma (2 mM AEBSF, 1 mM EDTA, 130 μM bestatin, 14 μM E-64, 1 μM leupeptin, and 0.3 μM aprotinin). Following a 10-sec sonication using 20% output in a Virsonic 300 sonicator (Virtis, Gardiner N.Y.) to disrupt cellular organelles and genomic DNA, cell lysates were centrifuged at 15,200×g for 15 minutes. One μL of the suspension was used for protein determination using a colorimetric BCA assay (Pierce, Rockford, Ill.), and to the remaining solution was added an equivalent volume of 2×SDS-polyacrylamide gel electrophoresis sample loading buffer (62.5 mM Tris-HCl, pH 6.8, 4% SDS, 5% β-mercaptoethanol, 20% glycerol, and 0.1% bromophenol blue), and boiled for 5 min. Equal amounts of proteins were resolved in 8% SDS-polyacrylamide gels, and transferred to nitrocellulose membranes using a semidry transfer cell. The transblotted membrane was washed twice with Tris-buffered saline containing 0.1% Tween 20 (TBST). After blocking with TBST containing 5% nonfat milk for 40 min, the membrane was incubated with the appropriate primary antibody in TBST-1% nonfat milk at 4° C. overnight. All primary antibodies were diluted 1:1000 in 1% nonfat milk-containing TBST. After treatment with the primary antibody, the membrane was washed three times with TBST for a total of 15 min, followed by incubation with goat anti-rabbit or anti-mouse Immunoglobulin G (IgG)-horseradish peroxidase conjugates (diluted 1:2000) for 1 h at room temperature and four washes with TBST for a total of 1 h. The immunoblots were visualized by enhanced chemiluminescence.
LNCaP cells were co-transfected with 5 μg each of Flag-Sp1 and HA-ubiquitin plasmids in an Amaxa Nucleofector using a LNCaP-specific nucleofector kit. These transiently transfected cells were seeded in 6-well plates at 2×10^5 per well. After 48-h incubation, cells were exposed to VES or TS-1 at the indicated concentration for 48 h, and lysed by a radioimmunoprecipitation assay lysis buffer (Santa Cruz Biotechnology) in the presence of a freshly prepared cocktail of phosphatase and protease inhibitors (2 mmol/L AEBSF, 1 mM EDTA, 130 μM bestatin, 14 μM E-64, 1 μM leupeptin, and 0.3 μM aprotinin, 2 mM imidazole, 1 mM sodium fluoride, 1.15 mM sodium molybdate, 1 mM sodium orthovanadate, and 4 mmol/L sodium tartrate dihydrate). After centrifugation at 13,000×g for 15 min, the supernatants were collected, preincubated with protein A/G agarose (Santa Cruz Biotechnology) for 15 min, and centrifuged at 1,000×g for 5 min. Supernatant (20 μL) were stored at 4° C. to be used as input, whereas the remaining supernatant was exposed to 4 μg of anti-Sp1 antibodies at 4° C. for 12 h, followed by protein A/G agarose beads at 4° C. for another 2 h. After brief centrifugation, immunoprecipitates were collected, washed with the aforementioned lysis buffer four times, suspended in 2×SDS sample buffer, and subjected to Western blot analysis with antibodies against HA and Flag.

[2] = system: AR and its target gene product PSA in LNCaP cells; assay: Western blot of AR and PSA expression in LNCaP cells; assay type: cell-based; conditions: PP2A inhibitor co-treatment with VES or TS-1
Procedure: as §1

[3] = system: androgen-independent prostate cancer; conditions: minimally pretreated patients with androgen-independent prostate cancer; cited from earlier work

Compound	protection of Sp1 from TS-1-facilitated ablation [1]	further results
CC(C)C[C@@H](C=O)NC(=O)[C@H](CC(C)C)NC(=O)[C@H](CC(C)C)NC(=O)OCc1ccccc1 [MG-132] (Cbz-Leu-Leu-Leu-aldehyde)	protected Sp1 from TS-1-facilitated ablation	
C=C1[C@@H](O)[C@@H]2O[C@]3(CC[C@H](/C=C/[C@@H](C)[C@@H]4CC(C)=C[C@@]5(O[C@H](C[C@@](C)(O)C(=O)O)CC[C@H]5O)O4)O3)CC[C@H]2O[C@@H]1[C@@H](O)C[C@H](C)[C@H]1O[C@@]2(CCCCO2)CC[C@H]1C [okadaic acid]		protection from VES/TS-1 suppression of phosphorylation or expression of JNK, Sp1 and AR [2]: could protect cells from the suppressive effect
Cn1cncc1[C@@](N)(c1ccc(Cl)cc1)c1ccc2c(c1)c(-c1cccc(Cl)c1)cc(=O)n2C [R115777]		anti-tumor activity in patients [3]: little anti-tumor activity
CC[C@H](C)[C@H](NC(=O)[C@H]([C@@H](C)CC)N(C)C(C)=O)C(=O)N[C@H](C(=O)N[C@@H](CC(C)C)C(=O)[C@@]1(C)CO1)[C@@H](C)O [epoxomicin]	protected Sp1 from TS-1-facilitated ablation	
